Counter-ions that a name gives are not always drawn. Like-named read-outs stand apart in the source and are kept apart here.
Biological target: AaDOP2 (Aedes aegypti, UniProt H6D5H2)
Experiment: AaDOP2 antagonist screen of the LOPAC1280 library (HEK-CRELuc-Aadop2 cells, luminescence)
Format: cell-based
Settings: for inhibition at 10 µM: read-out: % of the SCH23390 effect (percent inhibition of receptor response relative to the SCH23390 control)
[1] = 10 µM compound, 300 nM dopamine, 2 hr, hit = compound effect <20

Sequence of AaDOP2 (H6D5H2 1-476): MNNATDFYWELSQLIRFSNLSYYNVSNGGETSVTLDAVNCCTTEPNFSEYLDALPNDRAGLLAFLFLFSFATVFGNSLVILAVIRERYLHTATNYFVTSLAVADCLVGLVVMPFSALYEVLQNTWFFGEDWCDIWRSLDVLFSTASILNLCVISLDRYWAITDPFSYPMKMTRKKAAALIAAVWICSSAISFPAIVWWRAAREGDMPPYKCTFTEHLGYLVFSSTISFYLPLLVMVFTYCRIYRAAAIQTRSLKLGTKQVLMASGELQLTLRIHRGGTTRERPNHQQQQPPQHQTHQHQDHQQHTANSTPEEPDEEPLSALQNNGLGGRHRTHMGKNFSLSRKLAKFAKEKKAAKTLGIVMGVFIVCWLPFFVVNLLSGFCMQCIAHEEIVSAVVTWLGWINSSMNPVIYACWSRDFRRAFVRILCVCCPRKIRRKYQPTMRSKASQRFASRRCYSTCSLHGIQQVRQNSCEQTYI

Structure (SMILES)	Compound effect (percent receptor signaling in presence of test compound, relative lux units relative to the SCH23390 control)	inhibition at 10 µM [%]	Compound effect (percent receptor signaling in presence of test compound, relative lux units relative to the SCH23390 control) [1] [%]
CCC(=O)c1ccc2c(c1)N(CCCN(C)C)c1ccccc1S2 [Compound 972, Propionylpromazine hydrochloride]	15	85	
COc1cc2nc(N3CCN(C(=O)c4ccco4)CC3)nc(N)c2cc1OC [Compound 973, Prazosin hydrochloride]	81		
O=C(CCc1ccc(O)cc1)c1c(O)cc(O)cc1O [Compound 974, Phloretin]	99		
C#CCN(C)Cc1ccccc1 [Compound 975, Pargyline hydrochloride]	95		
CCCCCCCCCCCCCC(=O)O[C@@H]1[C@@H](C)[C@@]2(O)[C@@H](C=C(CO)C[C@]3(O)C(=O)C(C)=C[C@@H]23)[C@@H]2C(C)(C)[C@]12OC(C)=O [Compound 976, Phorbol 12-myristate 13-acetate]	12	88	
Br.Br.N=C(N)SCCc1cccc(CCSC(=N)N)c1 [Compound 977, 1,3-PBIT dihydrobromide]			117
C=CC1=C(C)c2cc3[nH]c(cc4nc(cc5[nH]c(cc1n2)c(C)c5CCC(=O)O)C(CCC(=O)O)=C4C)c(C)c3C=C [Compound 978, Protoporphyrin IX disodium]	86		
Br.Br.N=C(N)SCCc1ccc(CCSC(=N)N)cc1 [Compound 979, 1,4-PBIT dihydrobromide]			120
CCCCC1C(=O)N(c2ccccc2)N(c2ccccc2)C1=O [Compound 980, Phenylbutazone]	96		
COc1ccc(C(=O)NCc2cccnc2)cc1C(=O)NCc1cccnc1 [Compound 981, Picotamide]	84		
N[C@@H]1C[C@H]1c1ccccc1 [Compound 982, Tranylcypromine hydrochloride]	73		
CC(C)NC[C@H](O)COc1cccc2ccccc12 [Compound 983, (S)-Propranolol hydrochloride]	90		
N.S=C(S)N1CCCC1 [Compound 984, Ammonium pyrrolidinedithiocarbamate]			85
CNCCCC1c2ccccc2C=Cc2ccccc21 [Compound 986, Protriptyline hydrochloride]	18	82	
CCCN1C[C@H](CSC)C[C@@H]2c3cccc4[nH]cc(c34)C[C@H]21 [Compound 987, Pergolide methanesulfonate]	53		
O=c1[nH]c2ccccc2c2ccccc12 [Compound 988, 6(5H)-Phenanthridinone]	90		
CC(=O)[C@H]1CC[C@H]2[C@@H]3CC[C@H]4C[C@H](O)CC[C@]4(C)[C@H]3CC[C@]12C [Compound 989, 5alpha-Pregnan-3alpha-ol-20-one]	73		
CC(C)[N+](C)(CCOC(=O)C1c2ccccc2Oc2ccccc21)C(C)C [Compound 990, Propantheline bromide]	71		
O=S(=O)(O)C1CCNCC1 [Compound 991, Piperidine-4-sulphonic acid]	105		
O=C(O)/C=C\C(=O)O.c1cnc(N2CCN(Cc3ccc4c(c3)OCO4)CC2)nc1 [Compound 993, Piribedil maleate]			120

From publication PMC3265452 (PLoS Neglected Tropical Diseases, 2012)
